In patent publication US11827629B2, “CDGSH iron sulfur domain 2 activators and use thereof” (National Health Research Institutes, priority 2021, dated 2023):
pEC50: −log10 of the molar value.

Experiments:
Male C57BL/6 mice = test: In vivo doxorubicin-induced cachexia and hepatotoxicity; settings: 1 mg/kg i.p. twice a day for 2 days, doxorubicin 25 mg/kg i.p.
Experimental: Compound 28 was used in rescuing doxorubicin-induced cachexia and hepatotoxicity in the following in vivo study.
Male C57BL/6 mice between 7 and 8 months were pretreated with Compound 28 (1 mg/kg) or a vehicle (1.5 wt % of DMF and 3 wt % of Cremophor® EL in PBS) via intraperitoneal injection (i.p.) twice a day for 2 days. At day 0, 1 hour after the treatment with compound 28, doxorubicin (25 mg/kg, i.p.) or another vehicle (10% DMSO in normal saline) were injected into mice.
Different tissues including livers, cardiac muscle (left ventricle), skeletal muscle (gastrocnemius), brown adipose tissue, and white adipose tissue were weighted and collected after mice were sacrificed. The tissues were fixed with 10% formalin at 4° C. overnight, processed in a tissue processor, and then embedded in paraffin. H&E of tissue sections (3-4 m) were carried out by a standard protocol as described above.

Cisd2 hKO-het mice = test: In vivo NAFLD study in Cisd2 hKO-het mice (histopathology, serum biochemistry); settings: Cisd2 hKO-het male mice, 0.015 wt % in diet for 4 weeks
Experimental: Compound 28 of this invention was evaluated for its anti-nonalcoholic fatty liver disease (NAFLD) effect and in vivo toxicity following an assay described below.
Cisd2 floxed allele (Cisd2 f/f) mice were prepared following a procedure described in Wang et al., Hum. Mol. Genet. 23, 4770-85(2014). To obtain Cisd2 heterozygous hepatocyte-specific knockout (Cisd2 hKO-het, Cisd2 f/+; Alb-Cre Tg), Cisd2 f/f mice were bred with Albumin-Cre transgenic (Alb-Cre Tg, JAX003574) mice. After one generation, Cisd2 hKO-het mice were obtained. Male mice were chosen to be used in this study. All mice have a pure or congenic C57BL/6 background and were bred/housed in a specific pathogen-free facility with a 12 h light/12 h dark cycle at a temperature of 20-22° C. Groups of mice at 8 weeks old were provided a diet (AIN93G, TestDiet) containing a vehicle (0.14 wt % of DMF and 0.15 wt % of Cremophor® EL) or compound 28 (0.015 wt %) for 4 weeks.
Histopathology was used to evaluate the efficacy of Compound 28 in ameliorating NAFLD. Liver tissues were collected and fixed with 10% formalin at 4° C. overnight. They were then processed in a tissue processor (STP120, MICROM), followed by embedding in paraffin. H&E of tissue sections (3-4 m) were carried out by a standard protocol. […]

Cisd2 hKO male mice = test: In vivo fructose-induced NASH model in Cisd2 hKO mice (histopathology, GTT, ITT); settings: 0.015 wt % in diet for 5 months
Excerpt: Compound 28 was used to alleviate nonalcoholic steatohepatitis (NASH) in Cisd2 hKO male mice described above.
Cisd2 hKO were bred for two generations. […] They were fed 30% (w/v) fructose (Alfa Aesar A17718) in water to establish a fructose-induced NASH model. Groups of mice at 2 months old were provided with a diet (AIN93G, TestDiet) containing a vehicle (0.14 wt % of DMF and 0.15 wt % of Cremophor® EL) or Compound 28 (0.015 wt %) for 5 months. The food and drinking water were provided ad libitum.
Histopathology was used to evaluate the efficacy of Compound 28 in alleviating NASH. Liver tissues were processed and stained as described in Example 53 above.
An oral glucose tolerance test (GTT) and an insulin tolerance test (ITT) were performed to study beneficial effects of Compound 28 in the fructose-induced NASH model. In the oral glucose tolerance test, mice were fasted for 14 hours (7 p.m. to 9 a.m.) and then were orally administrated with glucose water (1.5 mg/g body weight) using a feeding needle. Blood samples were collected from tail vein before (0 min) and after glucose treatment at predetermined time points. Blood glucose levels were measured using OneTouch® Ultra glucose test strips and SureStep® Meter (LifeScan). In the insulin tolerance test, mice were fasted for 2 hours (9 a.m. to 11 a.m.) and then intraperitoneally injected with insulin (0.75 U/kg body weight) (Actrapid® human regular insulin, Novo Nordisk). Blood samples were collected and monitored at predetermined time points.

[1] = tested on: Cisd2 promoter with firefly luciferase reporter; test: Cisd2-luciferase reporter assay in HEK293-CISD2 cells; format: cell-based; settings: Homo sapiens, 24 hours incubation, luciferase luminescence
Procedure, shortened: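 HEK293 cells stably carrying Cisd2 promoter-firefly luciferase, seeded at 3×10^3 cells/well, exposed to compounds 24 h at 37 °C; luminescence read after 5 min ONE-Glo at room temperature. EC50 reported in classes: A <1 μM, B 1-5 μM, C 5-10 μM.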

## O=C(CS(=O)(=O)c1nccs1)N1Cc2ccccc2C1 [Compound 28, 1-(1,3-dihydro-2H-isoindol-2-yl)-2-(1,3-thiazol-2-ylsulfonyl)ethanone]
Male C57BL/6 mice
  effect on doxorubicin-induced hepatotoxicity: alleviated doxorubicin-induced hepatotoxicity
Male C57BL/6 mice; tissue weights
  effect on doxorubicin-induced cachexia: alleviated doxorubicin-induced hepatotoxicity and cachexia
Cisd2 hKO-het mice; liver histopathology
  anti-nonalcoholic fatty liver disease (NAFLD) effect: ameliorated NAFLD in Cisd2 hKO-het mice
Cisd2 hKO-het mice; serum ALT, AST, BUN, CRE
  in vivo toxicity: without observed toxicity
Cisd2 hKO male mice; Cisd2 hKO male mice, 30% fructose in water, liver histopathology
  effect on fructose-induced NASH: ameliorate fructose-induced NASH
Cisd2 hKO male mice; fructose-induced NASH model
  toxicity: without obvious toxicity
Cisd2 hKO male mice; insulin tolerance test
  effect on fructose-induced insulin resistance: alleviate fructose-induced glucose intolerance and insulin resistance
Cisd2 hKO male mice; oral glucose tolerance test
  effect on fructose-induced glucose intolerance: alleviate fructose-induced glucose intolerance
[1]
  pEC50: > 6.00
